The target of experiment [1] is T1, STING (Homo sapiens, UniProt Q86WV6). As to the kind of experiment: Inhibition of STING-agonist-induced IFN-β release in HFF-1 cells (HFF-1 STING inhibition assay). To be noted: 24h with compound, then 0.3 µM diABZI c3, 6h; ELISA. The format is cell-based. More on the design: host or cells: HFF-1 human foreskin fibroblasts. The protocol:
To evaluate cellular effects of test compounds, we assessed inhibition of STING-agonist-induced IFN-β release in human foreskin fibroblasts HFF-1 cells (ATCC, SCRC-1041). Cells were seeded at a density of 10.000 cells/well in 96-well Nunclon Delta surface treated culture plate in DMEM growth medium (supplemented with 10% FBS, 1% Pen-strep). Cells were incubated over-night at 37°C 5% CO2 to allow adhesion. Next morning growth medium was renewed and a 7x concentration 3-step dilution series of test compounds (2,1% DMSO) diluted in growth medium were added to the appropriate well. Final DMSO concentration was 0.3%. […] Cells culture plates were further incubated, and supernatants were harvested after 6h and immediately stored at -20°C until determination of IFN-β release. Cell supernatants were analysed for IFN-β release using DuoSet human IFN-β ELISA (R&D systems, DY-814) following manufactures protocol except using 96-well, half-volume plates from Corning and subsequently use half volume for all steps throughout the protocol. In brief, plates were coated o/n with a 130x dilution of capturing antibody in PBS. Wells were washed 3x with PBS-T20 followed by blocking with 1% BSA diluted in TBS-T20 for 1h. […] Wells were washed 3x with PBS-T20 and detection antibody diluted 1:60 in 1% BSA in PBS was added to each well and incubated for 2h at rt. […]
(An ELISA detects its analyte on a solid surface through an enzyme-linked reagent.)

For experiment [2], the target named is C-terminal domain (CTD) of human STING (Homo sapiens, UniProt Q86WV6). The experiment in a line: STING binding FP assay II. More on the design: recombinant human STING protein (155-379). The note with it: 7 nM STING.
Chain of C-terminal domain (CTD) of human STING (Q86WV6 155-379): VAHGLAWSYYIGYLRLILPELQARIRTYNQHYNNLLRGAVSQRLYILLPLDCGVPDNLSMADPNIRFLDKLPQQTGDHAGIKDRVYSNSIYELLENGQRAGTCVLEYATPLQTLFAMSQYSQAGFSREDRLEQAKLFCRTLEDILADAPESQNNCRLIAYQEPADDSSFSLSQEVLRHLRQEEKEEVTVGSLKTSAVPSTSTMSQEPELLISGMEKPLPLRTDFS
Experiment [3] addresses T1, STING. The experiment in a line: Inhibition of STING-agonist-induced IFN-β release in H596 cells (H596 STING inhibition assay). The format is cell-based. The note with it: 24h with compound, then 0.3 µM GSK STING agonist, 6h; ELISA. On the procedure:
Cell supernatants were analysed for IFN-β release using DuoSet human IFN-β ELISA (R&D systems, DY-814) following manufactures protocol except using 96-well, half-volume plates from Corning and subsequently use half volume for all steps throughout the protocol. In brief, plates were coated o/n with a 130x dilution of capturing antibody in PBS. Wells were washed 3x with PBS-T20 followed by blocking with 1% BSA diluted in TBS-T20 for 1h. Wells were washed 3x with PBS-T20 and standards (n=2) and samples (n=3) were added to the plate and incubated for 2h at rt. Wells were washed 3x with PBS-T20 and detection antibody diluted 1:60 in 1% BSA in PBS was added to each well and incubated for 2h at rt. Plates were washed 3x with PBS-T20 and Streptavidin-HRP diluted 1:40 in 1% BSA in PBS was added pr well and incubated for 30 min at rt. The wells were washed 4x with PBS-T20 and TMB One Substrate (Promega) was added and incubated for 5-10 min in the dark. When fully developed, 1 mmol/L Sulfuric acid was added to stop the reaction. Signals were measured using BioTek Synergy H1 plate reader at 450nm and 570nm (reference).
Raw data values were quantified based on the standard curve using blank subtracted Δ450nm-570nm values generated using the Gen5 software connected to the plate reader. Concentrations were plotted into GraphPad Prism to calculate EC50 values using a 4-parameter non-linear regression fitting curve, bottom constrains set for >0.
To determine cellular effects of test compounds, we assessed inhibition of STING-agonist-induced IFN-β release in H596 cells (ATCC, HTB-178). Cells were seeded at a density of 25.000 cells/well in 96-well Nunclon Delta surface treated culture plate in RPMI-1640 growth medium (supplemented with 10% FBS, 1% Pen-strep). Cells were incubated over-night at 37°C 5% CO2 to allow adhesion. Next morning growth medium was renewed and a 10x concentration, 3-step dilution series of test compounds diluted in growth medium (5% DMSO) were added to the appropriate well. Final DMSO concentration was 0.5%. Cells were further incubated for 24h followed by incubation with a 10x concentration of GSK STING agonist (CAS number: 2138299-34-8), final concentration was 0.3 µM. Cells culture plates were further incubated, and supernatants were harvested after 6h and immediately stored at -20°C until determination of IFN-β release.
For ELISA and data analysis, the methods described above for HFF-1 cells were applied.

T1 sequence (Q86WV6 whole entry): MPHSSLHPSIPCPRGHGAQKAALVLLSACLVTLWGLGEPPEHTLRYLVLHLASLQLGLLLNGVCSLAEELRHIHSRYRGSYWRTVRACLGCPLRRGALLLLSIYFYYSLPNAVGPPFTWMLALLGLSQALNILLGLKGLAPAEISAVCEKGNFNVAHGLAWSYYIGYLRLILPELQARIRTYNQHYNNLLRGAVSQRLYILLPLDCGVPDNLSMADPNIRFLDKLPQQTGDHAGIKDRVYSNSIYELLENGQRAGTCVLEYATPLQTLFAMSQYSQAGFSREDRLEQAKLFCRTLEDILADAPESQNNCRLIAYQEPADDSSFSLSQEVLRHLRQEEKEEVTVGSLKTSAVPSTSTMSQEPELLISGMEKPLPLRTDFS

What is called EC50 is the midpoint of the concentration-response curve. The IC50 is the concentration needed to halve the response being measured. On to `CCn1nc(C)cc1C(=O)N=c1n(C)c2cc(C(N)=O)ccc2n1CCC(CCn1c(=NC(=O)c2cc(C)nn2CC)n(C)c2cc(C(N)=O)ccc21)OCC(=O)NCCOCCOCCOCCOCCC(=O)NCCOCCOCCOCCOCC(=O)N[C@H](C(=O)N1C[C@H](O)C[C@H]1C(=O)NCc1ccc(-c2scnc2C)cc1)C(C)(C)C` (some centres unmarked) [Example 14], for which the EC50 at STING [1] was 1 to 5 µM. Besides, the IC50 in experiment [2] stood at 0.0057 µM.

For `CCn1nc(C)cc1C(=O)N=c1n(C)c2cc(C(N)=O)ccc2n1CCC(CCn1c(=NC(=O)c2cc(C)nn2CC)n(C)c2cc(C(N)=O)ccc21)OCC(=O)NCCOCCOCCOCCOCCC(=O)NCCOCCOCCOCCOCCNc1cccc2c1C(=O)N(C1CCC(=O)NC1=O)C2=O` (centres unmarked) [Example 16], the EC50 at STING [1] was < 0.2 µM; on STING [3], 1 to 5 µM. Further, the IC50 in experiment [2] was 0.0045 µM.

Source of the values: patent publication EP4663632A1, “COMPOUNDS USEFUL FOR THE MODULATION OF THE ACTIVITY OF STING” (Sulis Therapeutics ApS, priority 2024, dated 2025).
